Experimental data from ChEMBL document CHEMBL4196099, “Factor XIa Inhibitors as New Anticoagulants” (J Med Chem, 2018).

Columns and labels:
Coagulation factor XI [1] = molecular target: T1, Coagulation factor XI (Homo sapiens, UniProt P03951); assay: Inhibition of human factor 11a assessed as reduction in para-nitroanilide releasee using pyroGlu-Pro-Arg-pNA.HCl substrate by chromogenic assay
[2] = Terminal half life in healthy human following administration of 2 hrs and 5 day continuous iv infusion; assay type: ADME, organism-based; details: in vivo, read-out: beta t1/2
Trypsin = Trypsin (Homo sapiens, UniProt P07477+P07478+P35030); assay: Inhibition of trypsin (unknown origin) using Chromozyme-TRY substrate incubated for 3 mins by spectrophotometry; assay type: protein assay
Oryctolagus cuniculus [3] = organism: Oryctolagus cuniculus; assay: Antithrombotic activity in rabbit model of electrolytic-mediated carotid arterial thrombosis; assay type: functional
Oryctolagus cuniculus [4] = organism: Oryctolagus cuniculus; assay: Antithrombotic activity in rabbit model of arteriovenous-shunt thrombosis; assay type: functional
Tryptase = Tryptase (Homo sapiens, UniProt Q9BZJ3+Q15661+Q9NRR2); assay: Inhibition of human lung tryptase using Z-glypro-arg-AMC incubated for 3 mins by spectrophotometry; assay type: protein assay
Oryctolagus cuniculus [5] = organism: Oryctolagus cuniculus; assay: Antithrombotic activity in rabbit model of venous thrombosis; assay type: functional
Coagulation factor XI [6] = molecular target: T1, Coagulation factor XI; assay: Inhibition of human factor 11a incubated for 60 mins by Cheng-Prusoff equation analysis

T1 sequence (P03951 19-387 limits assumed): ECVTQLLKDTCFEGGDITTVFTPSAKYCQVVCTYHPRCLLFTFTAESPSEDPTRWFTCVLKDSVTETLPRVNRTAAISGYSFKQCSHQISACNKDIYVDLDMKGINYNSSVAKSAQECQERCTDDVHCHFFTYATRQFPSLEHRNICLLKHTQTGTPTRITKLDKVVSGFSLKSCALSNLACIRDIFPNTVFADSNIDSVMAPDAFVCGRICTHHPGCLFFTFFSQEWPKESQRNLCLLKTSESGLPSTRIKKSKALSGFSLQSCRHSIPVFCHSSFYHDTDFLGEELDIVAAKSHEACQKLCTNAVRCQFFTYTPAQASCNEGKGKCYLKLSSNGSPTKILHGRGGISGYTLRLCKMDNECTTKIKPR
T1 sequence (P03951 388-625 limits assumed): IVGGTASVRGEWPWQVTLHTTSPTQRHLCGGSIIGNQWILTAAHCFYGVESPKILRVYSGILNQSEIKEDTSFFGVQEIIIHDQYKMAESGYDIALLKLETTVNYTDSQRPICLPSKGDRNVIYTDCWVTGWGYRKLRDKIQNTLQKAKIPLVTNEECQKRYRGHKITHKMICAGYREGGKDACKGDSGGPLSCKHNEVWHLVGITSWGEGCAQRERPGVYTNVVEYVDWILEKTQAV

CNC(=O)[C@H](Cc1ccccc1)NC(=O)c1ccc2[nH]c(=O)cc(O)c2c1
Kd (Coagulation factor XI [1]): 1.4 mM

CN1CCN(c2cccc3c2CCN(C(=O)/C=C/c2c(-n4cnnn4)ccc(Cl)c2F)[C@@H]3C(=O)Nc2ccc(C(=O)O)cc2)C(=O)C1 [BMS-962212]
half-life [2]: 360 to 540 min

CC(C)(C)NC(=O)N1CCN(C(=O)N2C(=O)[C@H](CCCN=C(N)N)[C@H]2C(=O)O)CC1
IC50 (Trypsin): 50 nM | ED50 (Oryctolagus cuniculus [3]): 1.5 mg/kg/h | ED50 (Oryctolagus cuniculus [4]): 0.4 mg/kg/h | IC50 (Tryptase): 5 nM | ED50 (Oryctolagus cuniculus [5]): 0.7 mg/kg/h

COC(=O)Nc1ccc2c(c1)NC(=O)CCCC[C@H](NC(=O)[C@H]1CC[C@H](CN)CC1)c1nc-2c[nH]1
Ki (Coagulation factor XI [6]): 0.3 nM
